Measured values reported in patent EP4389751A1, “HETEROCYCLIC COMPOUNDS AND USES THEREOF” (Kumquat Biosciences Inc., priority 2021, dated 2024).

Assays:
K-Ras G12S = target: T1, K-Ras G12S (Homo sapiens, UniProt P01116, G12S); test: HTRF assay of the K-Ras / SOS1 interaction; assay type: biochemical; settings: IC50 (against K-Ras G12D) to IC50 (against K-Ras G12S)
T1 construct: made in house; host or cells: E. coli (e.g., BL21 (DE3))
Summary of the method: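 Compounds (duplicates, 10 µM to 0.01 µM) were incubated ≥~10 min with Eu-labelled GST-K-Ras G12S and XL665-labelled His-hSOS1 in HEPES pH 7.4 buffer containing NaCl, DTT, BSA and Igepal. Disruption measured as HTRF emission ratio 665/620 nm, fitted to IC50.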

[1] = target: T2, KRAS protein (His-tagged GDP-loaded G12S 1-169) (Homo sapiens, UniProt P01116, G12S); test: Covalent modification of KRAS protein, intact-protein LC-MS; assay type: binding; settings: 24hrs at room temperature, KRAS protein ~2 µM
T2 construct: His-tagged GDP-loaded G12S 1-169
Experimental: Test compounds are prepared as 10 mM stock solutions in DMSO (Fisher cat#BP231-100). KRAS protein (His-tagged GDP-loaded wildtype 1-169, His-tagged GDP-loaded G12S 1-169 or His-tagged GDP-loaded G12D 1-169) is diluted to ~2 µM in appropriate buffer (e.g., a Hepes buffer at physiological conditions). For testing KRAS modification, compounds are diluted to 50X final test concentration in DMSO in 96-well storage plates. 2 µl of the diluted 50X compounds are added to appropriate wells in the PCR plate (Fisher cat#AB-0800). […] of the stock protein solution is added to each well of the 96-well PCR plate. Reactions are mixed carefully. The plate is sealed well with aluminum plate seal, and stored in drawer at room temperature for 24hrs. 5 µl of 2% formic acid (Fisher cat#A1 17-50) in MilliQ H2O is then added to each well followed by mixing with a pipette. The plate is then resealed with aluminum seal and stored until mass spectrometry analysis.
The extent of covalent modification of KRAS proteins was determined by liquid chromatography electrospray mass spectrometry analysis of the intact proteins on a Thermo Q-Exactive Plus mass spectrometer. 20 µl of sample was injected onto a bioZen 3.6 µm Intact C4 column (Phenomenex cat#00B-4767-AN) placed in a column oven set to 40°C and separated using a suitable LC gradient from -20% to ~60% solvent B. Solvent A was 0.1% formic acid and solvent B was 0.1% formic acid in acetonitrile. HESI source settings were set to 40, 5 and 1 for the sheath, auxiliary and sweep gas flow, respectively. The spray voltage was 4 kV, and the capillary temperature was 320°C. S-lens RF level was 50 and auxiliary gas heater temperature was set to 200°C. The mass spectrometry was acquired using a scan range from 650 to 1750 m/z using positive polarity at a mass resolution of 70,000, AGC target of 1e6 ions and maximum injection time of 250ms. The recorded protein mass spectrum was deconvoluted from the raw data file using Protein Deconvolution v4.0 (Thermo). The protein mass and adduct masses were exported with their peak intensities. The peak intensities for the unmodified and modified protein were used to calculate the percent covalent modification of the KRAS protein based on the following equation: %KRAS protein modification = ((KRAS-compound) / (KRAS) + (KRAS-Compound)) *100.

GP2D cells = test: Cell proliferation assay (CellTiter-Glo), K-Ras G12D cells; assay type: cell-based; settings: GP2D cells (K-Ras G12D); read-out: Inhibition of GP2D Cells (IC50)
Summary of the method: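 CellTiter-Glo luminescence, taken roughly 5 days after dosing, measured growth of G12D-mutant GP2D cells in DMEM/2 mM glutamine/10% FBS. Compound dilution series (e.g., 9 points, 3-fold) added the day after plating. Four-parameter fitting gave IC50.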

SMILES	Ratio of IC50 KRAS G12D vs. IC50 KRAS G12S (K-Ras G12S)	% G12S Modification at 24 hr. [1]	IC50 (GP2D cells) [nM]
N#Cc1cnn(C(=O)N2CCN(c3nc(OC[C@@]45CCCN4C[C@H](F)C5)nc4c(F)c(-c5ccc(F)c6sc(N)nc56)c(Cl)cc34)CC2)c1 [Compound A252, 1-(4-(7-(2-amino-7-fluorobenzo[d]thiazol-4-yl)-6-chloro-8-fluoro-2-(((2R,7aS)-2-fluorotetrahydro-1H-pyrrolizin-7a(5H)-yl)methoxy)quinazolin-4-yl)piperazine-1-carbonyl)-1H-pyrazole-4-carbonitrile]	A (A: indicates that the ratio of IC50 against KrasG12D vs. IC50 against KrasG12S is 1-fold or greater)	+++ (+++ indicates greater than 20% labelling)	1000 to 10000
Nc1nc2c(-c3c(Cl)cc4c(N5CCCC6(CCN(C(=O)n7cncn7)C6)C5)nc(OC[C@@]56CCCN5C[C@H](F)C6)nc4c3F)ccc(F)c2s1 (stereo partly drawn) [Compound A104, (7-(7-(2-amino-7-fluorobenzo[d]thiazol-4-yl)-6-chloro-8-fluoro-2-(((2R,7aS)-2-fluorotetrahydro-1H-pyrrolizin-7a(5H)-yl)methoxy)quinazolin-4-yl)-2,7-diazaspiro[4.5]decan-2-yl)(1H-1,2,4-triazol-1-yl)methanone]	A (A: indicates that the ratio of IC50 against KrasG12D vs. IC50 against KrasG12S is 1-fold or greater)	++ (++ indicates between about 1%- 20% labelling)	1000 to 10000
N#Cc1c(N)sc2c(F)ccc(-c3c(Cl)cc4c(N5CC6(CN(C(=O)n7cncn7)CCO6)C5)nc(OC[C@@]56CCCN5C[C@H](F)C6)nc4c3F)c12 [Compound A140, 4-(4-(8-(1H-1,2,4-triazole-1-carbonyl)-5-oxa-2,8-diazaspiro[3.5]nonan-2-yl)-6-chloro-8-fluoro-2-(((2R,7aS)-2-fluorotetrahydro-1H-pyrrolizin-7a(5H)-yl)methoxy)quinazolin-7-yl)-2-amino-7-fluorobenzo[b]thiophene-3-carbonitrile]	A (A: indicates that the ratio of IC50 against KrasG12D vs. IC50 against KrasG12S is 1-fold or greater)	+++ (+++ indicates greater than 20% labelling)	1000 to 10000
N#Cc1c(N)sc2c(F)ccc(-c3ncc4c(N5CC6CCC(C5)N6C(=O)n5ccnc5C#N)nc(OC[C@@]56CCCN5C[C@H](F)C6)nc4c3F)c12 [Compound A165, 1-(3-(7-(2-amino-3-cyano-7-fluorobenzo[b]thiophen-4-yl)-8-fluoro-2-(((2R,7aS)-2-fluorotetrahydro-1H-pyrrolizin-7a(5H)-yl)methoxy)pyrido[4,3-d]pyrimidin-4-yl)-3,8-diazabicyclo[3.2. 1]octane-8-carbonyl)-1H-imidazole-2-carbonitrile]	A (A: indicates that the ratio of IC50 against KrasG12D vs. IC50 against KrasG12S is 1-fold or greater)	++ (++ indicates between about 1%- 20% labelling)	1000 to 10000
CC1(C)CN(c2nc(OC[C@@]34CCCN3C[C@H](F)C4)nc3c(F)c(-c4ccc(F)c5sc(N)nc45)c(Cl)cc23)CC2(CN(C(=O)n3cncn3)C2)O1 [Compound A212, (8-(7-(2-amino-7-fluorobenzo[d]thiazol-4-yl)-6-chloro-8-fluoro-2-(((2R,7aS)-2-fluorotetrahydro-1H-pyrrolizin-7a(5H)-yl)methoxy)quinazolin-4-yl)-6,6-dimethyl-5-oxa-2,8-diazaspiro[3.5]nonan-2-yl)(1H-1,2,4-triazol-1-yl)methanone]	–	+++ (+++ indicates greater than 20% labelling)	1000 to 10000
Nc1nc2c(-c3c(Cl)cc4c(N5CCC6(CN(C(=O)n7cncn7)CCO6)C5)nc(OC[C@@]56CCCN5C[C@H](F)C6)nc4c3F)ccc(F)c2s1 (stereo partly drawn) [Compound A202, (2-(7-(2-amino-7-fluorobenzo[d]thiazol-4-yl)-6-chloro-8-fluoro-2-(((2R,7aS)-2-fluorotetrahydro-1H-pyrrolizin-7a(5H)-yl)methoxy)quinazolm-4-yl)-6-oxa-2,9-diazaspiro[4.5]decan-9-yl)(1H-1,2,4-triazol-1-yl)methanone]	–	+++ (+++ indicates greater than 20% labelling)	1000 to 10000
N#Cc1cccn1C(=O)N1CCN(c2nc(OC[C@@]34CCCN3C[C@H](F)C4)nc3c(F)c(-c4ccc(F)c5sc(N)nc45)c(Cl)cc23)CC1 [Compound A287, 1-(4-(7-(2-amino-7-fluorobenzo[d]thiazol-4-yl)-6-chloro-8-fluoro-2-(((2R,7aS)-2-fluorotetrahydro-1H-pyrrolizin-7a(5H)-yl)methoxy)quinazolin-4-yl)piperazine-1-carbonyl)-1H-pyrrole-2-carbonitrile]	–	++ (++ indicates between about 1%- 20% labelling)	1000 to 10000
N#Cc1nccn1C(=O)N1CCN(c2nc(OC[C@@]34CCCN3C[C@H](F)C4)nc3c(F)c(-c4ccc(F)c5sc(N)nc45)c(Cl)cc23)CC1 [Compound A272, 1-(4-(7-(2-amino-7-fluorobenzo[d]thiazol-4-yl)-6-chloro-8-fluoro-2-(((2R,7aS)-2-fluorotetrahydro-1H-pyrrolizin-7a(5H)-yl)methoxy)quinazolin-4-yl)piperazine-1-carbonyl)-1H-imidazole-2-carbonitrile]	–	+++ (+++ indicates greater than 20% labelling)	1000 to 10000
Nc1nc2c(-c3c(Cl)cc4c(N5CCCCC6(CN(C(=O)n7cncn7)C6)C5)nc(OC[C@@]56CCCN5C[C@H](F)C6)nc4c3F)ccc(F)c2s1 [Compound A265, (6-(7-(2-amino-7-fluorobenzo[d]thiazol-4-yl)-6-chloro-8-fluoro-2-(((2R,7aS)-2-fluorotetrahydro-1H-pyrrolizin-7a(5H)-yl)methoxy)quinazolm-4-yl)-2,6-diazaspiro[3.6]decan-2-yl)(1H-1,2,4-triazol-1-yl)methanone]	–	+++ (+++ indicates greater than 20% labelling)	≤ 1000
CN1CCC[C@H]1COc1nc(N2CCOC3(CN(C(=O)n4cncn4)C3)C2)c2cc(Cl)c(-c3ccc(F)c4sc(N)c(C#N)c34)c(F)c2n1 [Compound A182, 4-(4-(2-(1H-1,2,4-triazole-1-carbonyl)-5-oxa-2,8-diazaspiro[3.5]nonan-8-yl)-6-chloro-8-fluoro-2-(((S)-1-methylpyrrolidin-2-yl)methoxy)quinazolin-7-yl)-2-amino-7-fluorobenzo[b]thiophene-3-carbonitrile]	A (A: indicates that the ratio of IC50 against KrasG12D vs. IC50 against KrasG12S is 1-fold or greater)	++ (++ indicates between about 1%- 20% labelling)	–
N#Cc1c(N)sc2c(F)ccc(-c3ncc4c(N5CCOC6(CN(C(=O)n7cncn7)C6)C5)nc(OC[C@@]56CCCN5C[C@H](F)C6)nc4c3F)c12 [Compound A161, 4-(4-(2-(1H-1,2,4-triazole-1-carbonyl)-5-oxa-2,8-diazaspiro[3.5]nonan-8-yl)-8-fluoro-2-(((2R,7aS)-2-fluorotetrahydro-1H-pyrrolizin-7a(5H)-yl)methoxy)pyrido[4,3-d]pyrimidin-7-yl)-2-amino-7-fluorobenzo[b]thiophene-3-carbonitrile]	A (A: indicates that the ratio of IC50 against KrasG12D vs. IC50 against KrasG12S is 1-fold or greater)	+++ (+++ indicates greater than 20% labelling)	–
